According to patent US20250145619A1, “KHK INHIBITOR, PREPARATION METHOD THEREFOR AND USE THEREOF” (YOUNGENE THERAPEUTICS CO., LTD, priority 2022, published 2025):

Target: KHK—C (Homo sapiens (Human), UniProt P50053)
Assay: KHK—C ADP-Glo kinase inhibitory activity assay
Format: biochemical
Conditions: 1 nM KHK—C, 200 μM D-Fructose, 100 μM ATP, ADP-Glo luminescence
From the text: (KHK—C ADP-Glo Kinase Inhibitory Activity Assay)
Y=Bottom+(Top−Bottom)/(1+10^((LogIC50−X)×HillSlope)) • X: Log value of compound concentration • Y: Inhibition ratio (%)
[formula] • Negative control: DMSO

KHK—C, sequence (P50053 whole entry): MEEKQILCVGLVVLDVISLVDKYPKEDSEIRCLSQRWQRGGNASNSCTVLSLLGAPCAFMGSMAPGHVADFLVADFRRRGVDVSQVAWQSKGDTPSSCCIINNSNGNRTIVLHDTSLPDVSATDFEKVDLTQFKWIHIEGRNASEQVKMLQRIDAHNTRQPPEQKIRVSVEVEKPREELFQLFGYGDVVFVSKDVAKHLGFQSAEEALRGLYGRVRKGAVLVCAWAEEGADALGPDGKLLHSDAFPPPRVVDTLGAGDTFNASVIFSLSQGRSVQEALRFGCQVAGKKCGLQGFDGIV

C[C@H]1CCN1c1nc(N2CC[C@H](CC(=O)O)C2)cc2nccnc12 [Example 41, 2-((R)-1-(5-((S)-2-methylazetidine-1-yl)pyridino[3,4-b]pyrazin-7-yl)pyrrolidin-3-yl)acetic acid]
IC50: 3940 nM

C[C@H]1CCN1c1nc(N2C[C@@H]3[C@@H](CC(=O)O)[C@@H]3C2)cc2nc(C#N)cnc12 [Example 46, 2-((1R,5S,6R)-3-(2-cyano-5-((S)-2-methylazetidine-1-yl)pyridino[3,4-b]pyrazin-7-yl)-3-azabicyclo[3.1.0]hexan-6-yl)acetic acid]
IC50: 30.2 nM
